Reference: patent US7326721B2 (Hypnion, Inc., priority 2003, dated 2008)
Like-named read-outs stand apart in the source and are kept apart here.

Experiments:
[1] = tested on: adult male Wistar rats; assay: SCORE-2000 sleep-wakefulness, locomotor activity and body temperature monitoring; format: in vivo, rat
[2] = target: T1, H1 histamine receptor (Bos taurus, UniProt P30546); assay: Histamine H1 competitive binding assay ([3H]pyrilamine); parameters: species or system bovine
T1 construct: the receptors were obtained from bovine cerebellar membrane tissue; from tissue; host or cells: bovine cerebellar membranes

[3] = Plasma pharmacokinetics in dogs; format: in vivo; conditions: dog, 3 mg/kg
Source text: The following pharmacokinetic parameters are computed from the individual plasma concentrations of the modified antihistamine compound using a noncompartmental approach and appropriate validated pharmacokinetic software (e.g., WinNonlin Professional). Concentration values reported as BLQ are set to zero. If concentration data are available, interim calculations are done (non-QC.d data) between periods if possible.
Dose proportionality following study medication is explored by analyzing natural log-transformed pharmacokinetic variables AUC(0-t), AUC(0-inf), and Cmax with a linear model including the natural log-transformed dose as covariates. […] The following parameters were estimated: • Cmax Maximum plasma concentration. • Tmax Time to maximum concentration. • Cmax and Tmax were reported directly from the concentration-time data. • AUC0-T Area under the plasma concentration-time curve from time […] to the last time point with measurable concentrations, estimated bylinear trapezoidal rule. • AUC0-00 Area under the plasma concentration-time curve extrapolated to infinity, calculated using the formula: AUC0-00=AUC0-1+C0/λ0 • Where Ct is the last measurable concentration in plasma and λz is the terminal phase elimination rate constant estimated using log-linear regression during the terminal elimination phase. […]

[4] = target: T2, M1 muscarinic receptor (Homo sapiens, UniProt P11229); assay: Muscarinic M1 binding assay ([3H]-scopolamine, N-methyl chloride); parameters: purchased PerkinElmer, Inc., Wellesley, Mass; host or cells: CHO cells
T2 sequence (P11229 1-460): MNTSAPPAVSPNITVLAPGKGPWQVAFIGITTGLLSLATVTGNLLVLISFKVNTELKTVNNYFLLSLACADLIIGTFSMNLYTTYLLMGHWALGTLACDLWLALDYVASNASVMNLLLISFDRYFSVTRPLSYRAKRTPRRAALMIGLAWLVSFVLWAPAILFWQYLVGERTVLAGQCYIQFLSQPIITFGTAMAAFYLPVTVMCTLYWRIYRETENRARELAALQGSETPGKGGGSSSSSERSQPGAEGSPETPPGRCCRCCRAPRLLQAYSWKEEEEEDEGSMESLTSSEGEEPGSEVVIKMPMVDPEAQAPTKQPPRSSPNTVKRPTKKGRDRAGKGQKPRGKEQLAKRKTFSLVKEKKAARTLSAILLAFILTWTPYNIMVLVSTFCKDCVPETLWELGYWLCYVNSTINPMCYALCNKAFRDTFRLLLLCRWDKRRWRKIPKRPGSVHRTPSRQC

[5] = target: T3, M2 muscarinic receptor (Homo sapiens, UniProt P08172); assay: Muscarinic M2 binding assay; parameters: purchased PerkinElmer, Inc., Wellesley, Mass; host or cells: CHO cells
T3 sequence (P08172 1-466): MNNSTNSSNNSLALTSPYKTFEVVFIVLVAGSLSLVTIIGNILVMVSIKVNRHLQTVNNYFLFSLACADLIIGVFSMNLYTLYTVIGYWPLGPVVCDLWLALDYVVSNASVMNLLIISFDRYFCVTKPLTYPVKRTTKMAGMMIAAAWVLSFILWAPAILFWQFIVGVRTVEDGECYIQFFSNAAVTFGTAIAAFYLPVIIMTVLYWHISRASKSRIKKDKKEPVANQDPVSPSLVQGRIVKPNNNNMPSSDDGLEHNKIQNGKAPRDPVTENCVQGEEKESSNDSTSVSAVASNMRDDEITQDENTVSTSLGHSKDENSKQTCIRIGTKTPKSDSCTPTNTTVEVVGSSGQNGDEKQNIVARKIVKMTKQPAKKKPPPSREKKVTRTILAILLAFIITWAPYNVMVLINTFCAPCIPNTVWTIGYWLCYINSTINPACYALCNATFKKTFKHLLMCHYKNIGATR

[6] = target: M3 muscarinic receptor (Homo sapiens, UniProt P20309); assay: Muscarinic M3 binding assay; parameters: purchased PerkinElmer, Inc., Wellesley, Mass; host or cells: CHO cells
[7] = target: Neurokinin, NK2 (NKA) (hr) (Homo sapiens, UniProt P21452); assay: Table 12 panel: NK2; conditions: 1.0E−6, average N=2, read-out: percentage inhibition of specific binding
Source text: (§1) The percentage inhibition (average; N=2) for these receptors is shown below in Table 12.
(§2) Values in Table 12 are expressed as percentage inhibition of specific binding, and these values represent the average of replicate tubes at each of the concentrations tested.

[8] = target: Oxidase, MAO-B, Peripheral (Homo sapiens, UniProt P27338); assay: Table 12 panel: MAO-B; format: biochemical; conditions: 1.0E−6, average N=2
Source text: as §1, §2

[9] = target: hERG (Homo sapiens, UniProt Q12809); assay: Table 12 panel: hERG binding; parameters: expressed in transfected cells; conditions: human recombinant hERG potassium channel (binding assay), I[Kr] (hERG) (hr), 1.0E−6, average N=2, read-out: percentage inhibition of specific binding
Source text: as §1, §2

[10] = 1 h, read-out: percentage inhibition of specific binding

T1 sequence (P30546 whole entry): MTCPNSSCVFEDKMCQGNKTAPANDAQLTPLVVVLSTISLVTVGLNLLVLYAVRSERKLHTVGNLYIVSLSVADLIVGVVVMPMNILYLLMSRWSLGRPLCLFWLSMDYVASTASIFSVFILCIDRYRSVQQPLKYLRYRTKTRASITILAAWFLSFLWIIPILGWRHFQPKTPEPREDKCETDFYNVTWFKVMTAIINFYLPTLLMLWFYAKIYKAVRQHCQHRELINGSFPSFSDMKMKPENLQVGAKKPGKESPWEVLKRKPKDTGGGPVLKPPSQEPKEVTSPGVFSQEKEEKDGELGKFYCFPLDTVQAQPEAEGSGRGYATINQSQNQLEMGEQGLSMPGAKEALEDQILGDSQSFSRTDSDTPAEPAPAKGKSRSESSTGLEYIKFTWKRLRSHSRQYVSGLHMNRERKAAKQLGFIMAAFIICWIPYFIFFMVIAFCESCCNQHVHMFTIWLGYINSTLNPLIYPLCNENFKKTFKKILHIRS
Sequence of M3 muscarinic receptor (P20309 whole entry): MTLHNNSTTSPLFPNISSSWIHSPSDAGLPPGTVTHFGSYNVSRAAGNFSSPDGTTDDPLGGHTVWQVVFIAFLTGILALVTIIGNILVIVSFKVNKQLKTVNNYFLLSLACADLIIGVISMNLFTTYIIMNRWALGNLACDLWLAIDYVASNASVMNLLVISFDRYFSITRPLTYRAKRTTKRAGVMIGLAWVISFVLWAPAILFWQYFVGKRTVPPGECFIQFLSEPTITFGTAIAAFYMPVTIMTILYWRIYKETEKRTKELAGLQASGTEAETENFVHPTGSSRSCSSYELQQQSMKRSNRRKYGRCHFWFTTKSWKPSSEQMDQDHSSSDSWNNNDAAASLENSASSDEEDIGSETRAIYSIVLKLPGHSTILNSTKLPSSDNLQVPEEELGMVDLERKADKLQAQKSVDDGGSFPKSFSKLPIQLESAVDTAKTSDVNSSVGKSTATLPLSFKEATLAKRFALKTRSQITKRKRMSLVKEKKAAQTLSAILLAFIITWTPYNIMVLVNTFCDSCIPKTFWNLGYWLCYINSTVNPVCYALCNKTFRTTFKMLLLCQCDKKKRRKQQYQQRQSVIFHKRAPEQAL
Sequence of Neurokinin, NK2 (NKA) (hr) (P21452 whole entry): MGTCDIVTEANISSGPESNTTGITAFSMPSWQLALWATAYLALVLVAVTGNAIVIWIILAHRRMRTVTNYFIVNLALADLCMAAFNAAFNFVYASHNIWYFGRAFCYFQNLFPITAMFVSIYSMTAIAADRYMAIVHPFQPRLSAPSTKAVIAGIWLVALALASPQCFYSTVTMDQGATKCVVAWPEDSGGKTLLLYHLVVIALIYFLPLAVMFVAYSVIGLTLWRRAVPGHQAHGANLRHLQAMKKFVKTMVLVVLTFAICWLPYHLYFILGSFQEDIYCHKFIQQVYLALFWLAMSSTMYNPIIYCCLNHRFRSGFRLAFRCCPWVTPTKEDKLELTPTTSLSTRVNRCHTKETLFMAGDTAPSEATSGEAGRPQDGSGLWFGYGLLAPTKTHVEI
Sequence of Oxidase, MAO-B, Peripheral (P27338 whole entry): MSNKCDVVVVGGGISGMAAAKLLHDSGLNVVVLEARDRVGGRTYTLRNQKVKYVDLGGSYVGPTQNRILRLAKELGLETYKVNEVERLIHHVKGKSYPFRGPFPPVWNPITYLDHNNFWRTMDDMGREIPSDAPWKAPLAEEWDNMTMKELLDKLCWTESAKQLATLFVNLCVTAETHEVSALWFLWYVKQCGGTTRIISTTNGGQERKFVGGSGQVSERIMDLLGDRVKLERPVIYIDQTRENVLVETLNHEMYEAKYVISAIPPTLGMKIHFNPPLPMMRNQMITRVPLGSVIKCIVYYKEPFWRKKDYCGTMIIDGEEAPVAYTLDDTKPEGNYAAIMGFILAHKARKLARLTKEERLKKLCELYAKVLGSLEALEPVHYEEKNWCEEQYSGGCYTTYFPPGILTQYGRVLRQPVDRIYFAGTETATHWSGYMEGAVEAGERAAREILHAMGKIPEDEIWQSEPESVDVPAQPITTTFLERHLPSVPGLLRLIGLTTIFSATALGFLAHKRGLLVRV
Sequence of hERG (Q12809 whole entry): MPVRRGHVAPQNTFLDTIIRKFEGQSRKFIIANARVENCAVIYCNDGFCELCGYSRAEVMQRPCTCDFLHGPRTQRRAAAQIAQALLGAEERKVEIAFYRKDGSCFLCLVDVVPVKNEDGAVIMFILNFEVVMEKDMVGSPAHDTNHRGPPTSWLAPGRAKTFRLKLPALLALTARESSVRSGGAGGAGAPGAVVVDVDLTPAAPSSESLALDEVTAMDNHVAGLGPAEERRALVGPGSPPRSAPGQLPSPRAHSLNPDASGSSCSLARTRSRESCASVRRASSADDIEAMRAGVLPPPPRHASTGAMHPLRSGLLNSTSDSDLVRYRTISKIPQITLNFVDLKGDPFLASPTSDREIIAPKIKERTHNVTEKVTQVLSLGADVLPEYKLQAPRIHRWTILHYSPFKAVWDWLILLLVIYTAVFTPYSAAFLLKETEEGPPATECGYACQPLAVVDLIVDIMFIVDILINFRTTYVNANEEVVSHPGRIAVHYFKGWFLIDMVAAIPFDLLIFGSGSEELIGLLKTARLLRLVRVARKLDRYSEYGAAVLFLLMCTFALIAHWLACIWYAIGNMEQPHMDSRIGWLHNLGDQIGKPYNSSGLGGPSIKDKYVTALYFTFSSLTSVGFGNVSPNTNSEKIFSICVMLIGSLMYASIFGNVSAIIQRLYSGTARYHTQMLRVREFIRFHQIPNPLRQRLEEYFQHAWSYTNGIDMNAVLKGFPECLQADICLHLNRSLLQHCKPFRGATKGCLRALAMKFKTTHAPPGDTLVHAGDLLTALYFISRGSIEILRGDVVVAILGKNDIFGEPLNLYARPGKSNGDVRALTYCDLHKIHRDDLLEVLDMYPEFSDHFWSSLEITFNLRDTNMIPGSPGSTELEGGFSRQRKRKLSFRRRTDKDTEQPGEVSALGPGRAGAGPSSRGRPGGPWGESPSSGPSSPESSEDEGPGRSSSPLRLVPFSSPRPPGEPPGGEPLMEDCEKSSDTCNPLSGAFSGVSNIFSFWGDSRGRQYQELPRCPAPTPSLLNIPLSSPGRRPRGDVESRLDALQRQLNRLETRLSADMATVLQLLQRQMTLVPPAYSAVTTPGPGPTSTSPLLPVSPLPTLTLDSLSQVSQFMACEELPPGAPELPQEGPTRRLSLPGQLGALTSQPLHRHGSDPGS

CC(C)(CN1CCC(=C2c3ccc(F)cc3COc3ccccc32)CC1)C(=O)O [Compound 49a]
LUSB ([1]; dose 0.3 mg/kg oral at CT-18): 2.8 min
NREM ([1]; dose 0.3 mg/kg oral at CT-18): -6.6 min
LUSB ([1]; dose 1 mg/kg oral at CT-18): 4.3 min
NREM ([1]; dose 1 mg/kg oral at CT-18): 18.8 min
LUSB ([1]; dose 3 mg/kg oral at CT-18): 11.6 min
NREM ([1]; dose 3 mg/kg oral at CT-18): 37.2 min
LUSB ([1]; dose 10 mg/kg oral at CT-18): 14.1 min
NREM ([1]; dose 10 mg/kg oral at CT-18): 45.3 min
LUSB ([1]; dose 30 mg/kg oral at CT-18): 12.9 min
NREM ([1]; dose 30 mg/kg oral at CT-18): 49.1 min
Ki ([2]; read-out: Ki H1): 0.0695 µM
half-life [3]: 4.2 h
Tmax ([3]; after oral administration): 0.5 h
Ki ([4]; read-out: Ki M1): > 10 µM
Ki ([5]; read-out: Ki M2): > 10 µM
Ki ([6]; read-out: Ki M3): > 10 µM

CC(CC(=O)O)N1CCC(=C2c3ccc(F)cc3COc3ccccc32)CC1 (stereo not drawn) [Compound 37]
REM inhibition ([1]; 10 mg/kg): did not produce any REM inhibition
body temperature ([1]; 10 mg/kg): no disproportional reduction
locomotor activity (LMA) ([1]; 10 mg/kg): no disproportional reduction
rebound insomnia ([1]; 10 mg/kg): did not produce any REM inhibition or rebound insomnia
Cumulative NREM sleep time increase, adjusted for baseline and relative to vehicle ([1]; 10 mg/kg PO at CT-18): 53 min
absolute average sleep bout ([1]; 10 mg/kg PO at CT-18): 9 min
absolute longest sleep bout post-treatment ([1]; 10 mg/kg PO at CT-18): 18.3 min
average sleep bout length increase, adjusted for baseline and relative to vehicle ([1]; 10 mg/kg PO at CT-18): 5.3 min
longest sleep bout (LUSB), adjusted for baseline and relative to vehicle ([1]; 10 mg/kg PO at CT-18): 10.8 min
peak NREM sleep time ([1]; 10 mg/kg PO at CT-18): 64 % per hour
body temperature ([1]; 30 mg/kg): drop in body temperature occurred only at this high dose
locomotor activity (LMA) ([1]; 30 mg/kg): no disproportional reduction in LMA
rebound insomnia ([1]; 30 mg/kg): No rebound insomnia was observed
Cumulative NREM sleep time increase, adjusted for baseline and relative to vehicle ([1]; 30 mg/kg PO at CT-18): 62 min
absolute average sleep bout ([1]; 30 mg/kg PO at CT-18): 9 min
absolute longest sleep bout post-treatment ([1]; 30 mg/kg PO at CT-18): 25 min
average sleep bout length increase, adjusted for baseline and relative to vehicle ([1]; 30 mg/kg PO at CT-18): 5.6 min
longest sleep bout (LUSB), adjusted for baseline and relative to vehicle ([1]; 30 mg/kg PO at CT-18): 17.1 min
peak NREM sleep time ([1]; 30 mg/kg PO at CT-18): 72 % per hour
REM inhibition ([1]; 30 mg/kg at CT-18): did not produce any appreciable REM inhibition
IC50 [2]: 0.0675 µM
Ki [2]: 0.0258 µM
inhibition at 1 µM [2, 10]: 93.1%
Slope ([2]; H1 binding curve (Table 13)): −0.99
inhibition at 1 µM [7]: -4.17%
percentage inhibition [8]: 4.24%
inhibition at 1 µM [9]: -5.23%
IC50 [4]: > 10 µM
Ki [4]: > 10 µM
inhibition at 1 µM [4, 10]: 5.11%
IC50 [5]: > 10 µM
Ki [5]: > 10 µM
inhibition at 1 µM [5, 10]: 14.6%
IC50 ([6]; M3 receptor binding (Table 19)): > 10 µM
Ki ([6]; M3 receptor binding (Table 19), read-out: Ki): > 10 µM
